Consider one compound from patent US20090087909A1, “Use of Trehalose in Conifer Somatic Embryogenesis to Increase Germination Vigor” (Weyerhaeuser Company, priority 2007, published 2009).

The test system of the experiment is Somatic embryos of Loblolly pine, genotypes C and D. The experiment is described as follows: Germination rate, yield, germinants/ml, root and hypocotyl length, genotypes C and D (Example 4). It is filed as cell-based, Loblolly pine (Pinus taeda). As for the experimental part:
Methods: Somatic embryos of Loblolly pine, genotypes C and D, were cultured as described in EXAMPLE 1 up to incubation in the maintenance media. After incubation in maintenance media using the methods described in EXAMPLE 1, advanced early stage somatic embryos were plated on semi-solid development medium BM3 (with 25 ppm ABA, 1% glucose and 2.5% maltose) at 25 embryos per plate, 15 plates per genotype. Specifically, at five weeks after plating, the media for 10 treatment plates per genotype were replaced with modified development media BM3 containing 5 ppm ABA instead of 25 ppm ABA. […]
After development, the embryos were transferred to stratification medium BM4, and germinated on medium BM5, as described in EXAMPLE 1. After 6 weeks incubation on germination medium, the embryos were assessed for germination rate, root length, hypocotyls length, and epicotyl length. […]
Plate yield was determined during singulation at eight weeks by counting the number of embryos present. […]
Data for germination rate was analyzed with a generalized linear model with a logit link. Yield, germinants/ml, root length, and hypocotyl length data were analyzed with a mixed linear model. […] When variance among all ten treatments was detected, the response means for the trehalose treatments only were compared using Fisher's LSD for multiple comparisons.

As for `OC[C@H]1O[C@H](O[C@H]2O[C@H](CO)[C@@H](O)[C@H](O)[C@H]2O)[C@H](O)[C@@H](O)[C@@H]1O` [trehalose, α-D-glucopyranosyl-[1,1]-α-D-glucopyranoside], the “Hypocotyl Length LS mean” value (combined genotypes C and D) was “positive effect on the hypocotyl length”. The “Root Length genotype C mean” value (genotype C) is given as “induces greater root length development”.
